The results in this text go back to ChEMBL document CHEMBL4052774, “Design, synthesis, molecular modeling and anti-hyperglycemic evaluation of quinazolin-4(3H)-one derivatives as potential PPARγ and SUR agonists” (Bioorg Med Chem, 2017).

One assay relates to Rattus norvegicus. In words: Antihyperglycemic activity in streptozotocin-induced diabetic Swiss albino rat assessed as decrease in blood glucose level at 20 mg/kg, po measured up to 3 hrs post dose relative to control. More on the design: scale not given: the % may be the effect or the level left. In kind it is functional.
Assay [1] concerns the target T1, Peroxisome proliferator-activated receptor gamma (Homo sapiens, UniProt P37231).
T1 sequence (P37231 whole entry): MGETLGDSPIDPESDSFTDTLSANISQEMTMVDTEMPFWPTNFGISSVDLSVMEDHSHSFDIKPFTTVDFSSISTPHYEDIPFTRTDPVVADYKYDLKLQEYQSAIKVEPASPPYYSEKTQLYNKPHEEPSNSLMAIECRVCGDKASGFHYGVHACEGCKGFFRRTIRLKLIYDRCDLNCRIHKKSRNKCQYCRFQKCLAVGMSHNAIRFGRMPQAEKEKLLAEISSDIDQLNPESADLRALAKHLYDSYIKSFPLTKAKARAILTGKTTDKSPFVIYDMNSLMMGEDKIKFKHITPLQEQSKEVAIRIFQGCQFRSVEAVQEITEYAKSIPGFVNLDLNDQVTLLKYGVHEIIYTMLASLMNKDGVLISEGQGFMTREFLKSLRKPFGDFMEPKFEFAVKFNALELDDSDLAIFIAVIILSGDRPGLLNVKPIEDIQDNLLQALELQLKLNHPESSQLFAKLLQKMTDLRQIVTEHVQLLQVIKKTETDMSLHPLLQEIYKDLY
In words: Displacement of fluormone-PPARgamma green from GST-tagged PPARgamma-LBD (unknown origin) by fluorescence polarization assay. Background: Fluorescence polarisation rises when a labelled molecule tumbles more slowly, as on binding a larger partner.

The nature of assay [2]: Agonist activity at SUR in Wistar rat pancreatic islets assessed as increase in insulin secretion at 5 to 20 uM incubated for 1 hr followed by glucose addition for 30 mins by quantitative sandwich enzyme immunoassay.

What is called IC50 is the point on the concentration scale where inhibition reaches its midpoint. As usually defined, the EC50 is the concentration needed to bring the measured effect to its halfway point. For `Cc1nc2ccccc2c(=O)n1CC(=O)Nc1ccc(S(=O)(=O)NC(=O)NC2CCCCC2)cc1`, the Activity with Rattus norvegicus turned out to be 38.64%. For the same molecule, in assay [1] (read-out: IC50), the IC50 amounted to 0.464 µM. Besides, the EC50 in assay [2] was 2.69 µM.

For the molecule `CCC1=C(C)CN(C(=O)NCCc2ccc(S(=O)(=O)NC(=O)N[C@H]3CC[C@H](C)CC3)cc2)C1=O` [GLIMEPIRIDE], the EC50 in assay [2] was found to be 0.79 µM.

In the case of `Cc1ccc(-n2c(SCC(=O)Nc3ccc(S(=O)(=O)NC(=O)Nc4ccccc4)cc3)nc3ccccc3c2=O)cc1`, the Activity with Rattus norvegicus stood at 33.42%. Besides, the IC50 in assay [1] (read-out: IC50) is 0.371 µM. Besides, the EC50 in assay [2] was found to be 3.09 µM.

Consider `CCc1nc2ccccc2c(=O)n1CC(=O)Nc1ccc(S(=O)(=O)NC(=O)NC2CCCCC2)cc1`, for which the Activity in the assay with Rattus norvegicus was determined as 34.25%. In addition, the IC50 in assay [1] (read-out: IC50) amounted to 0.59 µM. The EC50 in assay [2] was 1.15 µM.

`CCCCNC(=O)NS(=O)(=O)c1ccc(NC(=O)CSc2nc3ccccc3c(=O)n2-c2ccc(C)cc2)cc1`: the Activity with Rattus norvegicus was 37.76%. In assay [1] (read-out: IC50), the IC50 came to 0.434 µM. The EC50 in assay [2] amounted to 1.53 µM.

Regarding `COc1ccc(NC(=S)NS(=O)(=O)c2ccc(CCNS(=O)(=O)c3ccccc3)cc2)cc1`, the IC50 in assay [1] (read-out: IC50) was found to be 1000 µM.

With `Cc1nc2ccccc2c(=O)n1CC(=O)Nc1ccc(S(=O)(=O)NC(=O)Nc2ccccc2)cc1`, the Activity in the assay on Rattus norvegicus is recorded as 19.66%.

Regarding `COc1ccc(-n2c(SCC(=O)Nc3ccc(S(=O)(=O)NC(=O)Nc4ccccc4)cc3)nc3ccccc3c2=O)cc1`, the Activity in the assay with Rattus norvegicus was 24.58%.

Regarding `CCc1nc2ccccc2c(=O)n1CC(=O)Nc1ccc(S(=O)(=O)NC(=O)Nc2ccccc2)cc1`, the Activity with Rattus norvegicus amounted to 21.55%.

`Cc1ccc(S(=O)(=O)NCCc2ccc(S(=O)(=O)NC(=S)Nc3ccc(Cl)cc3)cc2)cc1`: in assay [1], the IC50 result is reported as “Not Active”.

For `Cc1nc2ccc(Br)cc2c(=O)n1CC(=O)Nc1ccc(S(=O)(=O)NC(=O)NC2CCCCC2)cc1`, the Activity in the assay on Rattus norvegicus was 42.5%. Moreover, the IC50 in assay [1] (read-out: IC50) came to 0.353 µM. Further, in assay [2], the EC50 turned out to be 1.68 µM.

In the case of `O=C(NC1CCCCC1)NS(=O)(=O)c1ccc(CCNS(=O)(=O)c2ccc(Cl)cc2)cc1`, the IC50 in assay [1] (read-out: IC50) is 3.1 µM.

For the molecule `CCCCNC(=O)NS(=O)(=O)c1ccc(NC(=O)Cn2c(C)nc3ccccc3c2=O)cc1`, the Activity in the assay with Rattus norvegicus is given as 29.22%. Further, in assay [1] (read-out: IC50), the IC50 was found to be 0.98 µM. Besides, the EC50 in assay [2] amounted to 2.91 µM.

For the molecule `Cc1nc2ccccc2n(CC(=O)Nc2ccc(S(=O)(=O)NC(=O)Nc3ccccc3)cc2)c1=O`, the IC50 in assay [1] (read-out: IC50) came out at 4 µM.

Regarding `CC(=O)Nc1ccc(S(=O)(=O)NCCc2ccc(S(=O)(=O)NC(=O)NC3CCC(C)CC3)cc2)cc1C` (configuration not stated), in assay [1] (read-out: IC50), the IC50 was determined as 2.4 µM.

As to `Cc1nc2ccccc2n(CC(=O)Nc2ccc(S(=O)(=O)NC(=S)Nc3ccccc3)cc2)c1=O`, the IC50 in assay [1] (read-out: IC50) was 4 µM.

Regarding `CC1CCC(NC(=O)NS(=O)(=O)c2ccc(CCNS(=O)(=O)c3ccc(Br)cc3)cc2)CC1` (configuration not stated), in assay [1] (read-out: IC50), the IC50 was 1.6 µM.

Regarding `CCCCNC(=O)NS(=O)(=O)c1ccc(NC(=O)CSc2nc3ccccc3c(=O)n2-c2ccc(OC)cc2)cc1`, in the assay on Rattus norvegicus, the Activity is listed as 41.23%. The IC50 in assay [1] (read-out: IC50) amounted to 0.369 µM. For the same molecule, in assay [2], the EC50 amounted to 1.01 µM.

As to `Cc1nc2ccc(Br)cc2c(=O)n1CC(=O)Nc1ccc(S(=O)(=O)NC(=O)Nc2ccccc2)cc1`, the Activity in the assay on Rattus norvegicus is 21.33%.

With `Cc1ccc(-n2c(SCC(=O)Nc3ccc(S(=O)(=O)NC(=O)NC4CCCCC4)cc3)nc3ccccc3c2=O)cc1`, the Activity in the assay on Rattus norvegicus came out at 40.43%. For the same molecule, in assay [1] (read-out: IC50), the IC50 amounted to 0.402 µM. In addition, in assay [2], the EC50 was found to be 1.31 µM.

Turning to `COc1ccc(NC(=S)NS(=O)(=O)c2ccc(CCNS(=O)(=O)c3ccc(C)cc3)cc2)cc1`, in assay [1], the IC50 entry is reported as “Not Active”.

On to `CC1CCC(NC(=O)NS(=O)(=O)c2ccc(CCNS(=O)(=O)c3ccccc3)cc2)CC1` (configuration not stated), for which the IC50 in assay [1] (read-out: IC50) was found to be 3.4 µM.

Consider `O=C(NC1CCCCC1)NS(=O)(=O)c1ccc(CCNS(=O)(=O)c2ccccc2)cc1`, for which the IC50 in assay [1] (read-out: IC50) amounted to 12.5 µM.

As for `CCCCNC(=S)NS(=O)(=O)c1ccc(NC(=O)Cn2c(=O)c(C)nc3ccccc32)cc1`, in assay [1] (read-out: IC50), the IC50 stood at 4 µM.

As to `COc1ccc(NC(=S)NS(=O)(=O)c2ccc(CCNS(=O)(=O)c3ccc(Cl)cc3)cc2)cc1`, in assay [1] (read-out: IC50), the IC50 came to 33.3 µM.

Take `CC(=O)Nc1ccc(S(=O)(=O)NCCc2ccc(S(=O)(=O)NC(=O)NC3CCC(C)CC3)cc2)cc1` (configuration not stated): the IC50 in assay [1] (read-out: IC50) was determined as 7.14 µM.

With `O=S(=O)(NCCc1ccc(S(=O)(=O)NC(=S)Nc2ccc(Cl)cc2)cc1)c1ccccc1`, in assay [1] (read-out: IC50), the IC50 was found to be 33.3 µM.

For `CCCCNC(=O)NS(=O)(=O)c1ccc(NC(=O)Cn2c(C)nc3ccc(Br)cc3c2=O)cc1`, the Activity with Rattus norvegicus was 28.25%.

In the case of `CCCCNC(=O)NS(=O)(=O)c1ccc(NC(=O)Cn2c(=O)c(C)nc3ccccc32)cc1`, in assay [1] (read-out: IC50), the IC50 is 4 µM.

Take `O=S(=O)(NCCc1ccc(S(=O)(=O)NC(=S)Nc2ccc(Cl)cc2)cc1)c1ccc(Cl)cc1`: the IC50 in assay [1] (read-out: IC50) came out at 33.3 µM.

`Cc1ccc(NC(=S)NS(=O)(=O)c2ccc(CCNS(=O)(=O)c3ccc(C)cc3)cc2)cc1`: the IC50 entry in assay [1] was “Not Active”.

On to `COc1ccc(-n2c(SCC(=O)Nc3ccc(S(=O)(=O)NC(=O)NC4CCCCC4)cc3)nc3ccccc3c2=O)cc1`, for which, in the assay with Rattus norvegicus, the Activity came out at 46.42%. In assay [1] (read-out: IC50), the IC50 stood at 0.35 µM. In addition, the EC50 in assay [2] came out at 0.97 µM.

As for `Cc1nc2ccccc2n(CC(=O)Nc2ccc(S(=O)(=O)NC(=S)NC3CCCCC3)cc2)c1=O`, the IC50 in assay [1] (read-out: IC50) was found to be 4 µM.

Turning to `CCCCNC(=O)NS(=O)(=O)c1ccc(NC(=O)Cn2c(CC)nc3ccccc3c2=O)cc1`, the Activity in the assay with Rattus norvegicus was determined as 38.44%. The IC50 in assay [1] (read-out: IC50) stood at 0.408 µM. Besides, the EC50 in assay [2] was 2.51 µM.

Take `Cc1nc2ccccc2n(CC(=O)Nc2ccc(S(=O)(=O)NC(=O)NC3CCCCC3)cc2)c1=O`: in assay [1] (read-out: IC50), the IC50 was determined as 4 µM.

For `O=C(NC1CCCCC1)NS(=O)(=O)c1ccc(CCNS(=O)(=O)c2ccc(Br)cc2)cc1`, in assay [1] (read-out: IC50), the IC50 came to 2.39 µM.

With `Cc1ccc(NC(=S)NS(=O)(=O)c2ccc(CCNS(=O)(=O)c3ccccc3)cc2)cc1`, the IC50 in assay [1] (read-out: IC50) amounted to 50 µM.
